Test results as given in PubChem BioAssay (NCI).
Values joined by “and” are separate entries in the source; they are usually repeats but may differ in a detail not shown here. Equal entries are not always repeated.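 In this assay, cells in 96-well plates receive the compound at five concentrations for 48 hours. Endpoints are linearly interpolated between the surrounding concentrations. Here, GI50 denotes the concentration required for 50% inhibition of growth. TGI denotes the concentration required for complete inhibition of growth.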

Assays:
Experiment in all cases: DTP human tumour cell line panel, 48 h
HL-60(TB) leukemia = test system: HL-60(TB) leukemia
DU-145 prostate = test system: DU-145 prostate
HCT-15 colon = test system: HCT-15 colon
K-562 leukemia = test system: K-562 leukemia
COLO 205 colon = test system: COLO 205 colon
KM12 colon = test system: KM12 colon
MALME-3M melanoma = test system: MALME-3M melanoma
SK-MEL-5 melanoma = test system: SK-MEL-5 melanoma
SK-MEL-2 melanoma = test system: SK-MEL-2 melanoma
MDA-MB-231 breast = test system: MDA-MB-231 breast
NCI-H226 lung = test system: NCI-H226 lung
U251 CNS = test system: U251 CNS
SR leukemia = test system: SR leukemia
DLD-1 colon = test system: DLD-1 colon
OVCAR-4 ovarian = test system: OVCAR-4 ovarian
HCT-116 colon = test system: HCT-116 colon
T-47D breast = test system: T-47D breast
UO-31 renal = test system: UO-31 renal
EKVX NSCLC = test system: EKVX NSCLC
MOLT-4 leukemia = test system: MOLT-4 leukemia
SNB-78 CNS = test system: SNB-78 CNS
ACHN renal = test system: ACHN renal
IGROV1 ovarian = test system: IGROV1 ovarian
A498 renal = test system: A498 renal
RPMI-8226 leukemia = test system: RPMI-8226 leukemia
SW-620 colon = test system: SW-620 colon
OVCAR-3 ovarian = test system: OVCAR-3 ovarian
SF-295 CNS = test system: SF-295 CNS
SF-268 CNS = test system: SF-268 CNS
KM20L2 colon = test system: KM20L2 colon
A549 NSCLC = test system: A549 NSCLC
MCF7 breast = test system: MCF7 breast
RXF 393 renal = test system: RXF 393 renal
HS 578T breast = test system: HS 578T breast
DMS 273 small cell lung = test system: DMS 273 small cell lung
DMS 114 small cell lung = test system: DMS 114 small cell lung
SNB-75 CNS = test system: SNB-75 CNS
PC-3 prostate = test system: PC-3 prostate
SF-539 CNS = test system: SF-539 CNS
CCRF-CEM leukemia = test system: CCRF-CEM leukemia
HT29 colon = test system: HT29 colon
786-0 renal = test system: 786-0 renal
M19-MEL melanoma = test system: M19-MEL melanoma
HOP-62 NSCLC = test system: HOP-62 NSCLC
SNB-19 CNS = test system: SNB-19 CNS
CAKI-1 renal = test system: CAKI-1 renal
SK-MEL-28 melanoma = test system: SK-MEL-28 melanoma
BT-549 breast = test system: BT-549 breast
SN12C renal = test system: SN12C renal
HCC-2998 colon = test system: HCC-2998 colon
NCI-H23 lung = test system: NCI-H23 lung
UACC-62 melanoma = test system: UACC-62 melanoma
M14 melanoma = test system: M14 melanoma
UACC-257 melanoma = test system: UACC-257 melanoma
OVCAR-8 ovarian = test system: OVCAR-8 ovarian
LOX IMVI melanoma = test system: LOX IMVI melanoma
OVCAR-5 ovarian = test system: OVCAR-5 ovarian
HOP-92 NSCLC = test system: HOP-92 NSCLC
NCI-H460 lung = test system: NCI-H460 lung
NCI/ADR-RES ovarian = test system: NCI/ADR-RES ovarian
LXFL 529 NSCLC = test system: LXFL 529 NSCLC
SK-OV-3 ovarian = test system: SK-OV-3 ovarian
MDA-N = test system: MDA-N
MDA-MB-435 = test system: MDA-MB-435
TK-10 renal = test system: TK-10 renal
NCI-H522 lung = test system: NCI-H522 lung
XF 498 CNS = test system: XF 498 CNS

## O=C1C=CC(=O)c2c1c1c(c3c2C2c4ccccc4C3c3ccccc32)C2c3ccccc3C1c1ccccc12
HL-60(TB) leukemia
  GI50: 0.657 µM
  TGI: 4.1 µM and 4.85 µM
DU-145 prostate
  TGI: 28.4 µM
HCT-15 colon
  GI50: 1.22 µM
  TGI: 2.77 µM and 2.95 µM
K-562 leukemia
  GI50: 0.552 µM
  TGI: 3.94 µM and 10.7 µM
COLO 205 colon
  GI50: 1.67 µM
  TGI: 3.66 µM and 2.86 µM
KM12 colon
  GI50: 2.49 µM
  TGI: 25.5 µM
MALME-3M melanoma
  TGI: 3.07 µM and 3.05 µM
SK-MEL-5 melanoma
  GI50: 1.52 µM
  TGI: 3.11 µM and 6.21 µM
SK-MEL-2 melanoma
  TGI: 4.25 µM
MDA-MB-231 breast
  GI50: 2.02 µM
  TGI: 4.09 µM
NCI-H226 lung
  GI50: 1.57 µM
  TGI: 3.02 µM and 11.1 µM
U251 CNS
  GI50: 4.05 µM
  TGI: 20.5 µM
SR leukemia
  GI50: 0.386 µM
  TGI: > 43.4 µM
DLD-1 colon
  TGI: 2.3 µM
OVCAR-4 ovarian
  TGI: 3.92 µM
HCT-116 colon
  TGI: 2.85 µM and 2.91 µM
T-47D breast
  GI50: 2 µM
  TGI: 3.25 µM and 3.49 µM
UO-31 renal
  GI50: 1.62 µM
  TGI: 3.09 µM and 4.32 µM
EKVX NSCLC
  GI50: 6.11 µM
  TGI: 8.53 µM
MOLT-4 leukemia
  GI50: 0.393 µM
  TGI: > 54.5 µM
SNB-78 CNS
  TGI: 3.57 µM
ACHN renal
  GI50: 1.96 µM
  TGI: 3.43 µM and 3.16 µM
IGROV1 ovarian
  GI50: 2.08 µM
  TGI: 4.58 µM and 14.7 µM
A498 renal
  TGI: 11.1 µM
RPMI-8226 leukemia
  GI50: 0.479 µM
  TGI: > 22.1 µM
SW-620 colon
  GI50: 0.588 µM
  TGI: 4.82 µM and 2.16 µM
OVCAR-3 ovarian
  TGI: 3.3 µM
SF-295 CNS
  GI50: 3.21 µM
  TGI: 30.4 µM
SF-268 CNS
  TGI: 16.5 µM
KM20L2 colon
  TGI: 15.2 µM
A549 NSCLC
  GI50: 3.08 µM
  TGI: 21.9 µM
MCF7 breast
  GI50: 2.58 µM
  TGI: 3.29 µM and 7.55 µM
RXF 393 renal
  GI50: 2.33 µM
  TGI: 3.86 µM and 3 µM
HS 578T breast
  GI50: 2.38 µM
  TGI: 6.24 µM
DMS 273 small cell lung
  TGI: 4.08 µM
DMS 114 small cell lung
  TGI: 4.41 µM
SNB-75 CNS
  TGI: 24.4 µM
PC-3 prostate
  GI50: 9.64 µM
  TGI: 3.37 µM and 21.6 µM
SF-539 CNS
  TGI: 11.5 µM
CCRF-CEM leukemia
  GI50: 0.451 µM
  TGI: 2.93 µM
HT29 colon
  GI50: 1.64 µM
  TGI: 4.19 µM and 4.29 µM
786-0 renal
  TGI: 2.99 µM and 2.88 µM
M19-MEL melanoma
  TGI: 3.6 µM
HOP-62 NSCLC
  GI50: 6.47 µM
  TGI: 35.1 µM
SNB-19 CNS
  GI50: 3.62 µM
  TGI: 34.4 µM
CAKI-1 renal
  GI50: 1.5 µM
  TGI: 2.83 µM and 3.25 µM
SK-MEL-28 melanoma
  TGI: 2.83 µM
BT-549 breast
  TGI: 13.7 µM
SN12C renal
  GI50: 1.43 µM
  TGI: 3 µM and 7.45 µM
HCC-2998 colon
  GI50: 4.91 µM
  TGI: 17.4 µM
NCI-H23 lung
  GI50: 1.81 µM
  TGI: 4.36 µM and 6.61 µM
UACC-62 melanoma
  GI50: 1.74 µM
  TGI: 4.37 µM and 4.7 µM
M14 melanoma
  TGI: 3.29 µM and 3.12 µM
UACC-257 melanoma
  TGI: 3.58 µM
OVCAR-8 ovarian
  GI50: 2.78 µM
  TGI: 2.94 µM
LOX IMVI melanoma
  TGI: 2.91 µM and 3.08 µM
OVCAR-5 ovarian
  TGI: 16.3 µM
HOP-92 NSCLC
  GI50: 1.65 µM
  TGI: 3.08 µM and 2.47 µM
NCI-H460 lung
  GI50: 3.85 µM
  TGI: 26.8 µM
NCI/ADR-RES ovarian
  GI50: 2.64 µM
  TGI: 6.2 µM
LXFL 529 NSCLC
  TGI: 2.27 µM
SK-OV-3 ovarian
  TGI: 28.6 µM
MDA-N
  TGI: 2.91 µM and 3.01 µM
MDA-MB-435
  TGI: 3.34 µM and 3.35 µM
TK-10 renal
  TGI: 3.31 µM and 3.4 µM
NCI-H522 lung
  GI50: 0.254 µM
  TGI: 0.775 µM and 1.42 µM
XF 498 CNS
  TGI: 3.34 µM
